Drawing on patent US11524940B1, “Inhibitors of cysteine proteases and methods of use thereof” (priority 2020, dated 2022), this text covers EC50 for 38 molecules.

229E Mpro, sequence (P0C6X1 2966-3267 limits assumed): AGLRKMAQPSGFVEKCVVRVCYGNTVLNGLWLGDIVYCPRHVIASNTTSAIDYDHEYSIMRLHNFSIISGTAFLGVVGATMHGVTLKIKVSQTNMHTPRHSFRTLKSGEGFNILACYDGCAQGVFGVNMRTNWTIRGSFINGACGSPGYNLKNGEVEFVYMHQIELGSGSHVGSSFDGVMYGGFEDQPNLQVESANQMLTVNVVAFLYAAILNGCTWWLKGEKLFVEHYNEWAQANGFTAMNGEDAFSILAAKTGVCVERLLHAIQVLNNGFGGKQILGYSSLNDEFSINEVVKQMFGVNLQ

The experiment concerns the target 229E Mpro (Human coronavirus 229E (HCoV-229E), UniProt P0C6X1). As to the kind of experiment: 229E Mpro activity. In kind it is biochemical. The settings on record: read-out: 229E Mpro EC50.
Procedure: Compounds are assayed using standard methods to assess compound activity and IC50. […] The assay buffer contains 20 mM of Tris-HCl (pH 7.3), 100 mM of NaCl, 1 mM of EDTA, 5mM of TCEP and 0.1% BSA.
Turning to `COc1cc(Cl)c2[nH]c(C(=O)N[C@@H](CC3CC3)C(=O)N[C@H](C#N)C[C@@H]3CCCNC3=O)cc2c1` [Compound 900, 7-chloro-N-((S)-1-(((S)-1-cyano-2-((S)-2-oxopiperidin-3-yl)ethyl)amino)-3-cyclopropyl-1-oxopropan-2-yl)-5-methoxy-1H-indole-2-carboxamide], the EC50 is below 2 µM.
In the case of `COc1cc(Cl)cc2[nH]c(C(=O)N[C@@H](CC3CC3)C(=O)N[C@H](C#N)C[C@@H]3CCCNC3=O)cc12` [Compound 906, 6-chloro-N-[(1S)-2-[[(1S)-1-cyano-2-[(3S)-2-oxo-3-piperidyl]ethyl]amino]-1-(cyclopropylmethyl)-2-oxo-ethyl]-4-methoxy-1H-indole-2-carboxamide], the EC50 is below 2 µM.
Under `COc1cccc2[nH]c(C(=O)N3C[C@H](OC(C)(C)C)C[C@H]3C(=O)N[C@H](C#N)C[C@@H]3CCNC3=O)cc12` [Compound 165, (2S,4R)-4-(tert-butoxy)-N-((S)-1-cyano-2-((S)-2-oxopyrrolidin-3-yl)ethyl)-1-(4-methoxy-1H-indole-2-carbonyl)pyrrolidine-2-carboxamide] stands above 30 µM.
Under `COc1cccc2[nH]c(C(=O)N[C@H](CC3CC3)C(=O)N[C@@H](C#N)C[C@@H]3CCCNC3=O)cc12` (single isomer, unassigned) [491 (Isomer 4)] stands below 2 µM.
Under `CC1(C)CCC(C[C@@H](C#N)NC(=O)[C@H](CC2CC2)NC(=O)c2cc3cccc(Cl)c3[nH]2)C(=O)N1` (single isomer, unassigned) [Compound 749 (Isomer 2)] stands 2 to 10 µM; under `CN1CCCC[C@]12CCN([C@@H](CC1CC1)C(=O)N[C@H](C#N)C[C@@H]1CCNC1=O)C2=O` [Compound 273C, (2S)-N-[(1S)-1-cyano-2-[(3S)-2-oxopyrrolidin-3-yl]ethyl]-3-cyclopropyl-2-[(5R)-6-methyl-1-oxo-2,6-diazaspiro[4.5]decan-2-yl]propanamide], 2 to 10 µM.
On to `CCNC(C#N)[C@H](C[C@@H]1CCNC1=O)NC(=O)[C@H](CC(C)C)NC(=O)c1cc2c(OC)cccc2[nH]1` (single isomer, unassigned) [511 (Isomer 2)], for which the EC50 is below 2 µM.
As for `COc1cccc2[nH]c(C(=O)N3CC(C)(C)C[C@H]3C(=O)N[C@H](C#N)C[C@@H]3CCNC3=O)cc12` (single isomer, unassigned) [395 (Isomer 1)], the EC50 was below 2 µM.
With `CCO[C@@H]1C[C@@H](C(=O)N[C@H](C#N)C[C@@H]2CCNC2=O)N(C(=O)c2cc3c(OC)cccc3[nH]2)C1` [Compound 535] the figure was above 30 µM; with `COc1cccc2[nH]c(C(=O)N3CC4(CCCC4)C[C@H]3C(=O)N[C@H](C#N)C[C@@H]3CCNC3=O)cc12` (single isomer, unassigned) [401 (Isomer 2)], 2 to 10 µM.
With `N#C[C@H](C[C@@H]1CCNC1=O)NC(=O)C1CC2(CCCCC2)CN1C(=O)c1cc2ccc(Cl)cc2[nH]1` (single isomer, unassigned) [878 (Isomer 2)] the figure was 10 to 30 µM; with `COc1cccc2[nH]c(C(=O)N[C@@H](CC(C)C)C(=O)N[C@@H](CC3CCNC3=O)C(C#N)NCc3ccccc3)cc12` (single isomer, unassigned) [507 (Isomer 2.1)], below 2 µM.
Under `COc1cccc2[nH]c(C(=O)N[C@@H](CC(C)C)C(=O)NC(C#N)Cc3cc(=O)[nH]c4ccccc34)cc12` (mixture of isomers) [Compound 237, N-[(1S)-1-[[1-cyano-2-(2-oxo-1H-quinolin-4-yl)ethyl]carbamoyl]-3-methyl-butyl]-4-methoxy-1H-indole-2-carboxamide] stands above 30 µM.
With `COc1cccc2[nH]c(C(=O)N3C[C@H]4CCC[C@H]4[C@H]3C(=O)N[C@H](C#N)C[C@@H]3CCNC3=O)cc12` [Compound 305], the EC50 was below 2 µM.
Under `COc1ccc(Cl)c2[nH]c(C(=O)N[C@@H](CC3CC3)C(=O)N[C@H](C#N)C[C@@H]3CCCNC3=O)cc12` [Compound 898, 7-chloro-N-[(1S)-2-[[(1S)-1-cyano-2-[(3S)-2-oxo-3-piperidyl]ethyl]amino]-1-(cyclopropylmethyl)-2-oxo-ethyl]-4-methoxy-1H-indole-2-carboxamide] stands below 2 µM; under `COc1cccc2[nH]c(C(=O)N[C@@H](CC(C)C)C(=O)N[C@@H](C[C@@H]3CCNC3=O)C3OC(=O)N(c4ccccc4)C3=N)cc12` (stereo partly drawn) [Compound 359, N-[(1S)-1-[[(1S)-1-(4-imino-2-oxo-3-phenyl-oxazolidin-5-yl)-2-[(3S)-2-oxopyrrolidin-3-yl]ethyl]carbamoyl]-3-methyl-butyl]-4-methoxy-1H-indole-2-carboxamide], 10 to 30 µM.
With `COc1cccc2[nH]c(C(=O)N3C[C@H](c4ccccc4)C[C@H]3C(=O)N[C@@H](C[C@@H]3CCNC3=O)C(O)C#N)cc12` (single isomer, unassigned) [345 (Isomer 2)] the figure was below 2 µM; with `COc1cccc2[nH]c(C(=O)N3CC(C)(C)C[C@H]3C(=O)N[C@H](C#N)C[C@@H]3CCNC3=O)cc12` (single isomer, unassigned) [395 (Isomer 2)], below 2 µM.
With `CC(C)C[C@H](NC(=O)CC(C)(O)c1ccc(Cl)cc1)C(=O)N[C@H](C#N)C[C@@H]1CCNC1=O` (single isomer, unassigned) [365 (Isomer 1)] the figure was 2 to 10 µM; with `N#C[C@H](C[C@@H]1CCCNC1=O)NC(=O)[C@H](CC1CC1)NC(=O)c1cc2cc(Cl)cc(Cl)c2[nH]1` [Compound 842, 5,7-dichloro-N-[(1S)-2-[[(1S)-1-cyano-2-[(3S)-2-oxo-3-piperidyl]ethyl]amino]-1-(cyclopropylmethyl)-2-oxo-ethyl]-1H-indole-2-carboxamide], below 2 µM; with `COc1cccc2[nH]c(C(=O)N[C@@H](CC3CC3)C(=O)N[C@H](C#N)C[C@H]3C(=O)Nc4ccccc43)cc12` [Compound 932], below 2 µM.
For `COc1cccc2[nH]c(C(=O)N[C@@H](CC(C)C)C(=O)N[C@@H](C[C@@H]3CCNC3=O)C(C#N)NC(C)(C)C)cc12` (single isomer, unassigned) [323 (Isomer 2)], the concentration giving a half-maximal response (EC50) is below 2 µM.
With `COc1cccc2[nH]c(C(=O)N[C@@H](Cc3cccc(Cl)c3)C(=O)N[C@H](C#N)C[C@@H]3CCNC3=O)cc12` [Compound 153] the figure was 10 to 30 µM.
With `COc1cccc2[nH]c(C(=O)N3CC(C45CC(C4)C5)C[C@H]3C(=O)N[C@H](C#N)C[C@@H]3CCNC3=O)cc12` (single isomer, unassigned) [385 (Isomer 1)] the figure was below 2 µM; with `N#C[C@H](C[C@@H]1CCCNC1=O)NC(=O)[C@H](CC1CC1)NC(=O)c1cc2c(F)cc(Cl)cc2[nH]1` [Compound 838, 6-chloro-N-[(1S)-2-[[(1S)-1-cyano-2-[(3S)-2-oxo-3-piperidyl]ethyl]amino]-1-(cyclopropylmethyl)-2-oxo-ethyl]-4-fluoro-1H-indole-2-carboxamide], below 2 µM; with `COc1cccc2[nH]c(C(=O)N3CCC4(CC4)C[C@H]3C(=O)N[C@H](C#N)C[C@@H]3CCNC3=O)cc12` [Compound 183, (S)-N-((S)-1-cyano-2-((S)-2-oxopyrrolidin-3-yl)ethyl)-6-(4-methoxy-1H-indole-2-carbonyl)-6-azaspiro[2.5]octane-5-carboxamide], 2 to 10 µM.
Take `N#C[C@H](C[C@@H]1CCNC1=O)NC(=O)C1CC2(CCCCC2)CN1C(=O)c1cc2cccc(Cl)c2[nH]1` (single isomer, unassigned) [984 (Isomer 2)]: the concentration for a half-maximal effect (EC50) is above 30 µM.
Under `CC(C)(C)C[C@H](NC(=O)c1cc2c(Cl)cc(Cl)cc2[nH]1)C(=O)N[C@H](C#N)C[C@@H]1CCCNC1=O` [Compound 795, 4,6-dichloro-N-((S)-1-(((S)-1-cyano-2-((S)-2-oxopiperidin-3-yl)ethyl)amino)-4,4-dimethyl-1-oxopentan-2-yl)-1H-indole-2-carboxamide] stands below 2 µM; under `N#C[C@H](C[C@@H]1CCCNC1=O)NC(=O)[C@H](CC1CC1)NC(=O)c1ccc(Cl)[nH]1` [Compound 864], below 2 µM; under `COc1cccc2[nH]c(C(=O)N3CC4(CCC4)CC3C(=O)N[C@H](C#N)C[C@@H]3CCNC3=O)cc12` (single isomer, unassigned) [399A (Isomer 1)], below 2 µM.
With `N#C[C@H](C[C@@H]1CCCNC1=O)NC(=O)C1CC2(CCC2)CN1C(=O)c1cc2cccc(Cl)c2[nH]1` (single isomer, unassigned) [729 (Isomer 2)] the figure was below 2 µM.
Turning to `N#C[C@H](C[C@@H]1CCNC1=O)NC(=O)[C@@H](CC1CC1)n1cccc(NCC(F)(F)F)c1=O` (single isomer, unassigned) [467 (Isomer 2)], the EC50 was above 30 µM.
Under `COc1ccc2[nH]c(C(=O)N3CC4(CCCCC4)CC3C(=O)N[C@H](C#N)C[C@@H]3CCNC3=O)cc2c1Cl` (single isomer, unassigned) [880 (Isomer 1)] stands 10 to 30 µM; under `COc1ccc(Br)c2[nH]c(C(=O)N[C@@H](CC3CC3)C(=O)N[C@H](C#N)C[C@@H]3CCCNC3=O)cc12` [Compound 846], below 2 µM; under `CC(C)(C)C[C@H](NC(=O)c1cc2c(F)cccc2[nH]1)C(=O)N[C@H](C#N)C[C@@H]1CCCNC1=O` [Compound 816], above 30 µM.
With `CN1CCCC[C@@]12CCN([C@H](CC1CC1)C(=O)N[C@H](C#N)C[C@@H]1CCNC1=O)C2=O` [Compound 273B, (2R)-N-[(1S)-1-cyano-2-[(3S)-2-oxopyrrolidin-3-yl]ethyl]-3-cyclopropyl-2-[(5S)-6-methyl-1-oxo-2,6-diazaspiro[4.5]decan-2-yl]propanamide] the figure was above 30 µM.
With `CN(C(=O)c1cc2cccc(Cl)c2[nH]1)[C@@H](CC1CC1)C(=O)N[C@H](C#N)C[C@@H]1CCCNC1=O` [Compound 1137] the figure was 2 to 10 µM.
Turning to `N#Cc1ccc2cc(C(=O)N[C@@H](CC3CC3)C(=O)N[C@H](C#N)C[C@@H]3CCCNC3=O)[nH]c2c1` [Compound 862, 6-cyano-N-[(1S)-2-[[(1S)-1-cyano-2-[(3S)-2-oxo-3-piperidyl]ethyl]amino]-1-(cyclopropylmethyl)-2-oxo-ethyl]-1H-indole-2-carboxamide], the EC50 is below 2 µM.
